According to US9796733B2, “Imidazo-pyrazine derivatives useful as soluble guanylate cyclase activators” (Merck Sharp & Dohme Corp., priority 2014, dated 2017):

Target: T1, sGC α1/β1 heterodimer (Homo sapiens, UniProt Q02108+Q02153)
T1 construct: expressed in transfected cells; host or cells: CHO-K1 (clone #7, CHO-K1/sGC)
T1 sequence (Q02108 1-690): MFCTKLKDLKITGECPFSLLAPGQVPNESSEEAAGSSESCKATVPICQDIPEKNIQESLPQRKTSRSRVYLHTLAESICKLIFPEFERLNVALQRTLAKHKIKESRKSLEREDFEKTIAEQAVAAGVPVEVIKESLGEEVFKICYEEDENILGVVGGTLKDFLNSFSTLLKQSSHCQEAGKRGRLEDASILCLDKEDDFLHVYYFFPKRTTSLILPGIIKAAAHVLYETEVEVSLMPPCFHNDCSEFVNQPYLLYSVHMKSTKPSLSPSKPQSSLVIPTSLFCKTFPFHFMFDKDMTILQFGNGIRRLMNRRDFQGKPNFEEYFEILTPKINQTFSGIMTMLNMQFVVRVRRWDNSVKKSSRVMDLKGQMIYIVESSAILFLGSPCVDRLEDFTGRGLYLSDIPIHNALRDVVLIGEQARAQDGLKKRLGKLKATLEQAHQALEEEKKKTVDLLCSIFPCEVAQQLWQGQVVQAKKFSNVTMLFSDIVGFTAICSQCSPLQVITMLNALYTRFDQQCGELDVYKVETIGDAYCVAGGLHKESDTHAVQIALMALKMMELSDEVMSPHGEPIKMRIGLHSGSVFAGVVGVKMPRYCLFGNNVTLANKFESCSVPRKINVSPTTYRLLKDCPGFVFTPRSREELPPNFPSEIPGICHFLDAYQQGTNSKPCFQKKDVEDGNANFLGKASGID
T1 sequence (Q02153 1-619): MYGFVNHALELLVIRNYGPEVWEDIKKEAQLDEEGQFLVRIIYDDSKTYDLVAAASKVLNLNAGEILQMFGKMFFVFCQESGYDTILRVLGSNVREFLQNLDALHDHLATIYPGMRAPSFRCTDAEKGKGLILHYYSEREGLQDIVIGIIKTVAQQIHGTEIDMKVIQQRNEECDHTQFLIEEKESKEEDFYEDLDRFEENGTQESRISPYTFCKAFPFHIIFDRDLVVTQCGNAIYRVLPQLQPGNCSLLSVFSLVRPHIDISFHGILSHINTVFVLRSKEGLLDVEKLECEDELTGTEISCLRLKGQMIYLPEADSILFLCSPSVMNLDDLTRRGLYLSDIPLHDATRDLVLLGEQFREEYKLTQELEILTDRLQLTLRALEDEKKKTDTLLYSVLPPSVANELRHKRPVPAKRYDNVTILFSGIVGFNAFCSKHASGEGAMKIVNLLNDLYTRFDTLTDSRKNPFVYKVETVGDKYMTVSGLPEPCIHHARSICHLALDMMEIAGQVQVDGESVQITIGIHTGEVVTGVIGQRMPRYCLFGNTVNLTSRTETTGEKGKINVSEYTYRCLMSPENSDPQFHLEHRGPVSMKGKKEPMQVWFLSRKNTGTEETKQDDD
Assay: Cell-based sGC functional assay (CASA assay): cGMP generation in CHO-K1/sGC cells, HTRF detection
Details: for Emax: CHO-K1, percent activation relative to standard Compound A in CHO-K1/sGC cells, read-out: % Act.; for EC50: inflection point (IP) of cGMP generation in CHO-K1/sGC cells, 4P fit, activity expressed as percentage of Compound A
Method in brief: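 Stable CHO-K1/sGC cells in EBSS buffer with 5 mM MgCl2, 0.05% BSA and 0.5 mM IBMX were incubated with compound (2.5% DMSO final) ±1 μM DETA-NO for 1 hr at 37° C. cGMP was measured by HTRF. Activation is expressed as % of reference HDA Compound A maximum, with IP and max fold induction from a 4P fit.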

Row | Emax [%] | EC50 [nM] | Compound
1 | 145 | 5 | CC1(c2ccc(Cl)cc2)C(=O)Nc2nc(-c3cn4ccnc4c(Cc4ccc(F)c(F)c4)n3)nc(N)c21 (stereo not shown) [Example 97A, 4-amino-5-(4-chlorophenyl)-2-(8-(3,4-difluorobenzyl)imidazo[1,2-a]pyrazin-6-yl)-5-methyl-5H-pyrrolo[2,3-d]pyrimidin-6(7H)-one]
2 | 110 | 13 | CC1(c2ccc(F)cc2)C(=O)Nc2nc(-c3cn4ccnc4c(Cc4c(F)ccc(F)c4F)n3)nc(N)c21 (stereo not shown) [Example 98A, 4-amino-5-(4-fluorophenyl)-5-methyl-2-(8-(2,3,6-trifluorobenzyl)imidazo[1,2-a]pyrazin-6-yl)-5H-pyrrolo[2,3-d]pyrimidin-6(7H)-one]
3 | 119 | 11 | CC1(c2ccc(Cl)cc2)C(=O)Nc2nc(-c3cn4ccnc4c(Cc4ccc(F)cc4)n3)nc(N)c21 (stereo not shown) [Example 99A, 4-amino-5-(4-chlorophenyl)-2-(8-(4-fluorobenzyl)imidazo[1,2-a]pyrazin-6-yl)-5-methyl-5H-pyrrolo[2,3-d]pyrimidin-6(7H)-one]
4 | 116 | 34 | CC1(c2ccccc2)C(=O)Nc2nc(-c3cn4ccnc4c(Cc4cccc(F)c4)n3)nc(N)c21 (stereo not shown) [Example 101B, 4-amino-2-(8-(3-fluorobenzyl)imidazo[1,2-a]pyrazin-6-yl)-5-methyl-5-phenyl-5H-pyrrolo[2,3-d]pyrimidin-6(7H)-one]
5 | 89 | 15 | CC1(c2ccccc2)C(=O)Nc2nc(-c3cn4ccnc4c(Cc4ccccc4)n3)nc(N)c21 (stereo not shown) [Example 102B, 4-amino-2-(8-benzylimidazo[1,2-a]pyrazin-6-yl)-5-methyl-5-phenyl-5H-pyrrolo[2,3-d]pyrimidin-6(7H)-one]
6 | 85 | 18 | CC1(c2ccccn2)C(=O)Nc2nc(-c3cn4ccnc4c(Cc4ccc(F)cc4)n3)nc(N)c21 (stereo not shown) [Example 103B, 4-amino-2-(8-(4-fluorobenzyl)imidazo[1,2-a]pyrazin-6-yl)-5-methyl-5-(pyridin-2-yl)-5H-pyrrolo[2,3-d]pyrimidin-6(7H)-one]
7 | 132 | 396 | Nc1nc(-c2cn3ccnc3c(Cc3ccc(F)cc3)n2)nc2c1C(c1ccc(F)cn1)(C1CC1)C(=O)N2 (stereo not shown) [Example 104A, 4-amino-5-cyclopropyl-2-(8-(4-fluorobenzyl)imidazo[1,2-a]pyrazin-6-yl)-5-(5-fluoropyridin-2-yl)-5H-pyrrolo[2,3-d]pyrimidin-6(7H)-one]
8 | 102 | 384 | Cc1ccc(C2(C)C(=O)Nc3nc(-c4cn5ccnc5c(Cc5ccc(F)cc5)n4)nc(N)c32)cn1 (stereo not shown) [Example 105A, 4-amino-2-(8-(4-fluorobenzyl)imidazo[1,2-a]pyrazin-6-yl)-5-methyl-5-(6-methylpyridin-3-yl)-5H-pyrrolo[2,3-d]pyrimidin-6(7H)-one]
9 | 83 | 252 | CCC1(c2ccc(F)cn2)C(=O)Nc2nc(-c3cn4ccnc4c(Cc4ccc(F)cc4)n3)nc(N)c21 (stereo not shown) [Example 106A, 4-amino-5-ethyl-2-(8-(4-fluorobenzyl)imidazo[1,2-a]pyrazin-6-yl)-5-(5-fluoropyridin-2-yl)-5H-pyrrolo[2,3-d]pyrimidin-6(7H)-one]
10 | 171 | 86 | CC1(c2ccc(Cl)cn2)C(=O)Nc2nc(-c3cn4ccnc4c(Cc4ccc(F)cc4)n3)nc(N)c21 (stereo not shown) [Example 107A, 4-amino-5-(5-chloropyridin-2-yl)-2-(8-(4-fluorobenzyl)imidazo[1,2-a]pyrazin-6-yl)-5-methyl-5H-pyrrolo[2,3-d]pyrimidin-6(7H)-one]
11 | 154 | 51 | Nc1nc(-c2cn3ccnc3c(Cc3ccccc3F)n2)nc2c1C(c1ccc(Cl)cn1)(C1CC1)C(=O)N2 (stereo not shown) [Example 110A, 4-amino-5-(5-chloropyridin-2-yl)-5-cyclopropyl-2-(8-(2-fluorobenzyl)imidazo[1,2-a]pyrazin-6-yl)-5H-pyrrolo[2,3-d]pyrimidin-6(7H)-one]
